Measurements as given in patent US20170042151A1, “SAFENED HERBICIDAL COMPOSITIONS COMPRISING PYRIDINE CARBOXYLIC ACIDS” (Dow AgroSciences LLC, priority 2015, published 2017).

What was measured:
Type in all cases: in vivo
[1] = tested on: HORVS = Hordeum vulgare (spring barley); assay: Greenhouse post-emergence phytotoxicity (% visual injury) on spring barley
Experimental: (§1) In addition, the efficacy of the herbicidal composition on wild mustard (SINAR), wild chamomile (MATCH), wild pansy (VIOTR), shepherd's purse ([…]), pigweed (AMARE), and Canada thistle (CIRAR) was evaluated. […] When required to ensure good germination and healthy plants, a fungicide treatment and/or other chemical or physical treatment was applied. The plants were grown for 7-36 days (d) in a greenhouse with an approximate 14-hour (h) photoperiod which was maintained at about 18° C. during the day and 17° C. during the night. Nutrients and water were added on a regular basis and supplemental lighting was provided with overhead metal halide 1000-Watt lamps as necessary. The plants were employed for testing when they reached the second or third true leaf stage. Weighed amounts of technical material were dissolved in a volume of 97:3 volume per volume (v/v) acetone/dimethyl sulfoxide (DMSO) to stock solutions. […] Stock solutions of the safeners were prepared following the same procedure. […] Control plants were sprayed in the same manner with the solvent blank. The treated plants and control plants were placed in a greenhouse as described above and watered by sub-irrigation to prevent wash-off of the test compounds. […] Colby's equation was used to determine the herbicidal effects expected from the mixtures.

[2] = tested on: TRZAW = Triticum aestivum (winter wheat); assay: Greenhouse post-emergence phytotoxicity (% visual injury) on wheat
Experimental: as §1

[3] = tested on: VIOTR = Viola tricolor (wild pansy); assay: Greenhouse post-emergence efficacy (% visual injury) on wild pansy; details: 20-22 d
Experimental: (§2) The herbicide of formula I-G-A was combined with isoxadifen-ethyl or mefenpyr-diethyl, and applied to spring wheat (TRZAS) and spring barley (HORVS) and the phytotoxicity of the herbicidal composition was measured. In addition, the efficacy of the herbicidal composition on wild mustard (SINAR), wild chamomile (MATCH), wild pansy (VIOTR), shepherd's purse (CAPBP), kochia (KCHSC), lambsquarters (CHEAL), pigweed (AMARE), and Canada thistle (CIRAR) was evaluated. The results for herbicide I-G-A with isoxadifen-ethyl and mefenpyr-diethyl are summarized in Table 7 and Table 8, respectively.
(§3) Seeds of the desired test plant species were planted in Sun Gro MetroMix® 360 planting mixture, which typically has a pH of 6.0 to 6.8 and an organic matter content of about 30 percent, in plastic pots with a surface area of 103.2 square centimeters (cm^2). When required to ensure good germination and healthy plants, a fungicide treatment and/or other chemical or physical treatment was applied. The plants were grown for 7-36 days (d) in a greenhouse with an approximate 14-hour (h) photoperiod which was maintained at about 18° C. during the day and 17° C. during the night. Nutrients and water were added on a regular basis and supplemental lighting was provided with overhead metal halide 1000-Watt lamps as necessary. The plants were employed for testing when they reached the second or third true leaf stage.
(§4) Weighed amounts of technical material were dissolved in a volume of 97:3 volume per volume (v/v) acetone/dimethyl sulfoxide (DMSO) to stock solutions. […] Compound requirements are based upon a 12 milliliter (mL) application volume at a rate of 187 liters per hectare (L/ha). Stock solutions of the safeners were prepared following the same procedure. Spray solutions of the safeners and experimental compound mixtures were prepared by adding the stock solutions to the appropriate amount of dilution solution to form a 12 mL spray solution in two-way combinations. Formulated compounds were applied to the plant material with an overhead Mandel track sprayer equipped with 8002E nozzles calibrated to deliver 187 L/ha over an application area of 0.503 square meters (m^2) at a spray height of 18 inches (43 centimeters (cm)) above average plant canopy. Control plants were sprayed in the same manner with the solvent blank.
(§5) The treated plants and control plants were placed in a greenhouse as described above and watered by sub-irrigation to prevent wash-off of the test compounds. After 20-22 d, the condition of the test plants as compared with that of the control plants was determined visually and scored on a scale of 0 to 100 percent where 0 corresponds to no injury and 100 corresponds to complete kill. Colby's equation was used to determine the herbicidal effects expected from the mixtures.

[4] = tested on: CHEAL = Chenopodium album (lambsquarters); assay: Greenhouse post-emergence efficacy (% visual injury) on lambsquarters; details: 20-22 d
Experimental: as §2, §3, §4, §5

[5] = tested on: MATCH = Matricaria recutita (wild chamomile); assay: Greenhouse post-emergence efficacy (% visual injury) on wild chamomile; details: 20-22 d
Experimental: as §2, §3, §4, §5

[6] = tested on: AMARE = Amaranthus retroflexus (pigweed); assay: Greenhouse post-emergence efficacy (% visual injury) on pigweed; details: 20-22 d
Experimental: as §2, §3, §4, §5

[7] = tested on: SINAR = Sinapis arvensis (wild mustard); assay: Greenhouse post-emergence efficacy (% visual injury) on wild mustard; details: 20-22 d
Experimental: as §2, §3, §4, §5

[8] = tested on: CAPBP = Capsella bursa-pastoris (shepherd's purse); assay: Greenhouse post-emergence efficacy (% visual injury) on shepherd's purse; details: 20-22 d
Experimental: as §2, §3, §4, §5

[9] = tested on: KCHSC = Kochia scoparia (kochia); assay: Greenhouse post-emergence efficacy (% visual injury) on kochia; details: 20-22 d
Experimental: as §2, §3, §4, §5

[10] = tested on: CIRAR = Cirsium arvense (Canada thistle); assay: Greenhouse post-emergence efficacy (% visual injury) on Canada thistle; details: 20-22 d
Experimental: as §2, §3, §4, §5

[11] = safener 20 g ai/ha alone, 20-22 d
[12] = safener 40 g ai/ha alone, 20-22 d
[13] = safener 80 g ai/ha alone, 20-22 d
[14] = herbicide 20 g ae/ha alone, 20-22 d

## NC(=O)NS(=O)(=O)c1ccccc1Cl [2-CBSU, N-(aminocarbonyl)-2-chlorobenzenesulfonamide]
[1]; in vivo
  Effect (% visual injury) HORVS Obs: 0%
[2]; in vivo
  Effect (% visual injury) TRZAW Obs: 0%

## C=CCN(CC=C)C(=O)C(Cl)Cl [dichlormid, N,N-diallyl-2,2-dichloroacetamide]
[1]; [11]
  Effect (% visual injury) HORVS Obs: 0%
[1]; [12]
  Effect (% visual injury) HORVS Obs: 0%
[1]; [13]
  Effect (% visual injury) HORVS Obs: 0%
[2]; [11]
  Effect (% visual injury) TRZAW Obs: 0%
[2]; [12]
  Effect (% visual injury) TRZAW Obs: 0%
[2]; [13]
  Effect (% visual injury) TRZAW Obs: 0%

## CC1COc2ccccc2N1C(=O)C(Cl)Cl (racemic) [benoxacor, (±)-4-(dichloroacetyl)-3,4-dihydro-3-methyl-2H-1,4-benzoxazine]
[1]; in vivo
  Effect (% visual injury) HORVS Obs: 0%
[2]; in vivo
  Effect (% visual injury) TRZAW Obs: 0%

## CCc1nc(C(=O)O)c(Cl)c(N)c1F [I-G-A]
[3]; herbicide 20 g ae/ha alone
  Effect (% visual injury) VIOTR Obs: 60%
[4]; herbicide 20 g ae/ha alone
  Effect (% visual injury) CHEAL Obs: 95%
[5]; herbicide 20 g ae/ha alone
  Effect (% visual injury) MATCH Obs: 80%
[6]; herbicide 20 g ae/ha alone
  Effect (% visual injury) AMARE Obs: 20%
[1]; [14]
  Effect (% visual injury) HORVS Obs: 13%
[7]; herbicide 20 g ae/ha alone
  Effect (% visual injury) SINAR Obs: 97%
[8]; herbicide 20 g ae/ha alone
  Effect (% visual injury) CAPBP Obs: 100%
[9]; herbicide 20 g ae/ha alone
  Effect (% visual injury) KCHSC Obs: 20%
[2]; [14]
  Effect (% visual injury) TRZAW Obs: 25%
[10]; herbicide 20 g ae/ha alone
  Effect (% visual injury) CIRAR Obs: 80%

## O=C(O)c1nc(C(Cl)(Cl)Cl)n(-c2ccc(Cl)cc2Cl)n1 [fenchlorazole, 1-(2,4-dichlorophenyl)-5-(trichloromethyl)-1H-1,2,4-triazole-3-carboxylic acid]
[1]; [11]
  Effect (% visual injury) HORVS Obs: 0%
[1]; [12]
  Effect (% visual injury) HORVS Obs: 0%
[1]; [13]
  Effect (% visual injury) HORVS Obs: 0%
[2]; [11]
  Effect (% visual injury) TRZAW Obs: 0%
[2]; [12]
  Effect (% visual injury) TRZAW Obs: 0%
[2]; [13]
  Effect (% visual injury) TRZAW Obs: 0%

## Clc1cc(Cl)nc(-c2ccccc2)n1 [fenclorim, 4,6-dichloro-2-phenylpyrimidine]
[1]; in vivo
  Effect (% visual injury) HORVS Obs: 0%
[2]; in vivo
  Effect (% visual injury) TRZAW Obs: 0%

## O=C1OC(=O)c2cccc3cccc1c23 [naphthalic anhydride]
[1]; in vivo
  Effect (% visual injury) HORVS Obs: 0%
[2]; in vivo
  Effect (% visual injury) TRZAW Obs: 0%

## CCOC(=O)C1=NN(c2ccc(Cl)cc2Cl)C(C)(C(=O)OCC)C1 (racemic) [mefenpyr-diethyl, (RS)-1-(2,4-dichlorophenyl)-5-methyl-2-pyrazoline-3,5-dicarboxylate]
[3]; safener 20 g ai/ha alone
  Effect (% visual injury) VIOTR Obs: 0%
[3]; safener 40 g ai/ha alone
  Effect (% visual injury) VIOTR Obs: 0%
[3]; safener 80 g ai/ha alone
  Effect (% visual injury) VIOTR Obs: 0%
[4]; safener 20 g ai/ha alone
  Effect (% visual injury) CHEAL Obs: 0%
[4]; safener 40 g ai/ha alone
  Effect (% visual injury) CHEAL Obs: 0%
[4]; safener 80 g ai/ha alone
  Effect (% visual injury) CHEAL Obs: 0%
[5]; safener 20 g ai/ha alone
  Effect (% visual injury) MATCH Obs: 0%
[5]; safener 40 g ai/ha alone
  Effect (% visual injury) MATCH Obs: 0%
[5]; safener 80 g ai/ha alone
  Effect (% visual injury) MATCH Obs: 0%
[6]; safener 20 g ai/ha alone
  Effect (% visual injury) AMARE Obs: 0%
[6]; safener 40 g ai/ha alone
  Effect (% visual injury) AMARE Obs: 0%
[6]; safener 80 g ai/ha alone
  Effect (% visual injury) AMARE Obs: 0%
[1]; [11]
  Effect (% visual injury) HORVS Obs: 0%
[1]; [12]
  Effect (% visual injury) HORVS Obs: 0%
[1]; [13]
  Effect (% visual injury) HORVS Obs: 0%
[7]; safener 20 g ai/ha alone
  Effect (% visual injury) SINAR Obs: 0%
[7]; safener 40 g ai/ha alone
  Effect (% visual injury) SINAR Obs: 0%
[7]; safener 80 g ai/ha alone
  Effect (% visual injury) SINAR Obs: 0%
[8]; safener 20 g ai/ha alone
  Effect (% visual injury) CAPBP Obs: 0%
[8]; safener 40 g ai/ha alone
  Effect (% visual injury) CAPBP Obs: 0%
[8]; safener 80 g ai/ha alone
  Effect (% visual injury) CAPBP Obs: 0%
[9]; safener 20 g ai/ha alone
  Effect (% visual injury) KCHSC Obs: 0%
[9]; safener 40 g ai/ha alone
  Effect (% visual injury) KCHSC Obs: 0%
[9]; safener 80 g ai/ha alone
  Effect (% visual injury) KCHSC Obs: 0%
[2]; [11]
  Effect (% visual injury) TRZAW Obs: 0%
[2]; [12]
  Effect (% visual injury) TRZAW Obs: 0%
[2]; [13]
  Effect (% visual injury) TRZAW Obs: 0%
[10]; safener 20 g ai/ha alone
  Effect (% visual injury) CIRAR Obs: 0%
[10]; safener 40 g ai/ha alone
  Effect (% visual injury) CIRAR Obs: 0%
[10]; safener 80 g ai/ha alone
  Effect (% visual injury) CIRAR Obs: 0%
